Where two headings read alike, the source gives them in different places.
Tests used:
[1] = Concentration and elimination of ADP and its metabolites in liver, kidney, muscle, fat/skin after oral ^3H-ADP for 7 d; format: in vivo, carp; conditions: for concentration at 0.25 d / concentration at 1 d / concentration at 3 d / concentration at 7 d / concentration at 14 d / concentration at 21 d: carp, oral; for half-life: po
Protocol: (§1) A total of 36 animals from each species (swine n = 24) were randomly assigned to six equal treatment groups and administered a single daily dose of ^3 H-ADP at 5 mg/kg b. w. (0.1 Ci/g) through oral gavage for 7 consecutive days. All the animals were housed on the basis of their group in the cages or aquaria throughout the whole study period. A group of animals was slaughtered through exsanguination under diethyl ether inhalation of anesthesia in the period of 6 h, 1, 3, 7, 14, and 21 d after the administration. The blood samples were immediately collected into the heparinized tubes and was centrifuged at 1920 × g at 4 °C for 10 min to obtain the plasma. The tissues from the heart, liver, spleen, lung, kidney, craw (broilers), stomach, intestine, fat, skin, muscle, thymus, pancreas, bile, bladder, hair (scale for carp), genital gland, adrenal glands, swim bladder (carp), brain, lymph, and bursa (broilers) were carefully excised and collected. The tissues were thoroughly rinsed with the deionized water to remove the residuary blood, blotted to dryness, and finally to perform the homogenization. In order to avoid cross-contamination the dissecting instruments were washed during the tissue procurements. The blank tissues were collected in order to provide control matrices. The total radioactivity levels in each sample were determined through LSC. The samples extracted from the plasma, bile, and tissues of the liver, kidney, muscle, and fat/skin were analyzed through LC/MS-IT-TOF and v. ARC radiometric detection for metabolite profiling. The blank samples were used as control to determine the background radioactivity or the endogenous nondrug-related ions observed within respective matrices or their extracts.
The feces and tissues (2 g) were diluted with a mixture of methanol and chloroform (1:3, v:v; 2 mL/g homogenate). This procedure was carried out in a fume hood for the safety aspects. The pH value was adjusted to 9.0 with NH4OH. The mixture was vortexed and sonicated for 5 min and 10 min, respectively, and finally the samples were centrifuged at 7690 × g for 10 min. The supernatant was aspirated and then transferred into a new centrifuge tube. The obtained pellet was again subjected to the same process of vortex, ultrasonication, extraction, and centrifugation. The combined supernatant was concentrated under a stream of nitrogen in a water bath at 40 °C. The residue was reconstituted with 0.3 mL of methanol–water (1:9, v:v) before the injection into the LC-v. ARC/MS-IT-TOF system for analysis.
ADP and its metabolites in the prepared samples were determined with a v. ARC radiometric detector and a hybrid IT/TOF mass spectrometer connected to the HPLC system (Shimadzu Corp., Kyoto, Japan). The LC system was equipped with a solvent delivery pump (LC-20AD), an auto-sampler (SIL-20AC), a degasser (DGU-20 A 3), a photodiode array detector (SPD-M20A), a communication base module (CBM-20 A), and a column oven (CTO-20AC). The chromatographic separation was achieved by using an Agilent extend-C18 column (2.1 mm × 150 mm, 5 μm) with a gradient mobile phase of A (0.01% ammonia and 5 mM ammonium acetate in water) and B (methanol) at a flow rate of 0.2 mL/min. The column temperature was maintained at 35 °C. Various HPLC methods were performed because of the large number of different metabolites to be analyzed. For the porcine sample, method 1 started at 5% B and increased to 20% B over 35 min, then to 55% B by 60 min, followed by re-equilibration for another 10 min. For the remaining samples, method 2 started at 10% B and increased to 60% B over 30 min, subsequently was maintained at 60% B for an additional 10 min, and then changed to 90% B over 2 min and maintained for 2 min. Afterwards, a re-equilibration step (decreased to 10% B over 1 min and maintained at 10% B for additional 9 min) was followed. For each matrix, more than 98% of the radioactivity injected into the column was eluted during the running time of the gradient program. […]

[2] = Metabolite profiling of ADP in excreta, plasma and bile (LC-v.ARC/MS-IT-TOF); format: in vivo, rats; conditions: for Average percentage of ADP and its metabolites in total dose: Rat, single oral 5 mg/kg b.w. ^3H-ADP; for percentage of the individual metabolite compared with the total concentration of ADP-related: within 6 h after dosing
Protocol: (§2) Animals (4 swine, 6 broilers, 6 carp, and 3 male and 3 female rats) were housed individually in clean, suspended wire-mesh metabolism cages, designed to separate the urine from the feces (carp were raised in individual aquaria). Each animal was weighed and assigned with a permanent identification number. A single dose of ^3 H-ADP (5 mg/kg b. w., 0.1 Ci/g) was administered via the oral gavage. Excreta were collected on ice at the pre-administration, in the period of 6, 12, and 24 h on day 1 d, and afterwards, intermittently in the period of 24 h up to 14 d. The piscine excreta were collected by changing and collecting raised water. The total volume or weight of each sample was measured and homogenized. The total radioactivity levels were determined through LSC for the recovery calculations. After the preparation, the samples were analyzed through LC/MS-IT-TOF with v. ARC radiometric detection (XenoBioticLaboratories, Inc.) for metabolite profiling. The pretreatment samples were used as controls to determine the background radioactivity or the endogenous nondrug-related ions observed within respective matrices or their extracts.
as §1
(§3) For metabolite profiling, the urine and feces samples from each animals were pooled proportionally to the excreted amount in each sampling period from 0 to 6 h, 6 h to 1 d, 1 to 3 d, 3 to 7 d, and 7 to 14 d post-dose, respectively. All samples were fully homogenized before the process. The pre-dose and blank samples served as the controls for determining the background radioactivity or the endogenous, nondrug-related ions observed within respective matrices or their extracts.
(§4) The urine samples (plasma, bile and raised water for carp) was subjected to solid-phase extraction with an Oasis MCX cartridge (3 mL, […]; Waters, Milford, MA, USA) for metabolite purification and enrichment. The pH value was adjusted to 2.8–3.2 by adding 1 M hydrochloric acid (HCl), and 2 mL of the sample was transferred into MCX cartridge, which was preconditioned with 3 mL of methanol and 3 mL of 0.1 mol/L HCl solution. The cartridge was washed with 3 mL of 0.1 mol/L HCl solution and was eluted with 5 mL of NH4OH/methanol (4:96, v:v). The effluent was concentrated to dryness under a stream of nitrogen at 40 °C. […]

[3] = as above; format: in vivo, broilers; conditions: for percentage of the individual metabolite compared with the total concentration of ADP-related: within 6 h after dosing; for Average percentage of ADP and its metabolites in total dose: Broilers, Excreta, single oral 5 mg/kg b.w. ^3H-ADP
Protocol: as §2, §1, §3, §4

[4] = carp kidney, after 5 mg/kg b. w. for 7 days, read-out: t1/2 of the individual compound (converted)
[5] = carp liver, after 5 mg/kg b. w. for 7 days, read-out: t1/2 of the individual compound (converted)
[6] = carp muscle, after 5 mg/kg b. w. for 7 days, read-out: t1/2 of the individual compound (converted)
[7] = carp skin, after 5 mg/kg b. w. for 7 days, read-out: t1/2 of the individual compound (converted)
[8] = tissues (liver, kidney, muscle, fat/skin), 5 mg/kg, carp tissues, read-out: t1/2 of the individual compound, range over tissues

Row | SMILES | concentration at 0.25 d ([1]; kidney, 5 mg/kg b.w.) [ng/g] | concentration at 1 d ([1]; kidney, 5 mg/kg b.w.) [ng/g] | concentration at 3 d ([1]; kidney, 5 mg/kg b.w.) [ng/g] | concentration at 7 d ([1]; kidney, 5 mg/kg b.w.) [ng/g] | concentration at 0.25 d ([1]; liver, 5 mg/kg b. w.) [ng/g] | concentration at 1 d ([1]; liver, 5 mg/kg b. w.) [ng/g] | concentration at 3 d ([1]; liver, 5 mg/kg b. w.) [ng/g] | concentration at 7 d ([1]; liver, 5 mg/kg b. w.) [ng/g] | concentration at 0.25 d ([1]; muscle, 5 mg/kg b.w.) [ng/g] | concentration at 1 d ([1]; muscle, 5 mg/kg b.w.) [ng/g] | concentration at 0.25 d ([1]; skin, 5 mg/kg b. w.) [ng/g] | concentration at 1 d ([1]; skin, 5 mg/kg b. w.) [ng/g] | Average percentage of ADP and its metabolites in total dose ([2]; Feces) [%] | Average percentage of ADP and its metabolites in total dose ([2]; Urine) [%] | percentage of the individual metabolite compared with the total concentration of ADP-related ([2]; Rats Feces) [%] | percentage of the individual metabolite compared with the total concentration of ADP-related ([2]; Rats Plasma) [%] | percentage of the individual metabolite compared with the total concentration of ADP-related ([2]; Rats Urine) [%] | percentage of the individual metabolite compared with the total concentration of ADP-related ([3]; Broilers Extra (excreta)) [%] | percentage of the individual metabolite compared with the total concentration of ADP-related ([3]; Broilers Plasma) [%] | Average percentage of ADP and its metabolites in total dose [3] [%] | also measured
1 | COc1cc(Cc2cnc(N)nc2N)cc(OC)c1N(C)C [A0, 2,4-Diamino-5-[4-(dimethylamino)-3,5-dimethoxybenzyl] pyrimidine] | 38900 ± 8000 | 6470 ± 1250 | 3010 ± 550 | 1190 ± 80 | 13200 ± 3700 | 5750 ± 950 | 2370 ± 470 | 390 ± 100 | 1960 ± 530 | 1690 ± 410 | 3040 ± 520 | 2320 ± 670 | 14.0 | 61.3 | 79.4 | 75.0 | 71.2 | 63.2 | 51.6 | 64.3 | share of the sample radioactivity in the detected tissues ([1]; carp liver, kidney, muscle, skin, over the sampling times): more than 42%; concentration at 14 d ([1]; kidney, 5 mg/kg b.w.): 680 ± 80 ng/g; concentration at 21 d ([1]; kidney, 5 mg/kg b.w.): 90 ± 20 ng/g; concentration at 14 d ([1]; liver, 5 mg/kg b. w.): 260 ± 40 ng/g; concentration at 21 d ([1]; liver, 5 mg/kg b. w.): 90 ± 10 ng/g; concentration at 3 d ([1]; muscle, 5 mg/kg b.w.): 870 ± 180 ng/g; concentration at 7 d ([1]; muscle, 5 mg/kg b.w.): 410 ± 90 ng/g; concentration at 14 d ([1]; muscle, 5 mg/kg b.w.): 60 ± 10 ng/g; concentration at 3 d ([1]; skin, 5 mg/kg b. w.): 1330 ± 150 ng/g; concentration at 7 d ([1]; skin, 5 mg/kg b. w.): 800 ± 160 ng/g; concentration at 14 d ([1]; skin, 5 mg/kg b. w.): 60 ± 10 ng/g; half-life [1, 4]: 89.3 h; half-life [1, 5]: 159 h; half-life [1, 6]: 68.9 h; half-life [1, 7]: 57.6 h; half-life [1, 8]: 57.6 to 159 h
2 | CNc1c(OC)cc(Cc2cnc(N)nc2N)cc1OC [A1, N-monodesmethyl-ADP] | 7990 ± 1650 | 1730 ± 330 | 820 ± 150 | 380 ± 30 | 1930 ± 250 | 770 ± 130 | 160 ± 30 | 20 | 300 ± 80 | 270 ± 70 | 550 ± 90 | 450 ± 130 | 2.7 | 13.8 | 20.4 | 19.0 | 14.7 | 12.8 | 23.4 | 13.7 | concentration at 3 d ([1]; muscle, 5 mg/kg b.w.): 100 ± 20 ng/g; concentration at 3 d ([1]; skin, 5 mg/kg b. w.): 140 ± 20 ng/g; concentration at 7 d ([1]; skin, 5 mg/kg b. w.): 50 ± 10 ng/g; half-life [1, 4]: 67.4 h; half-life [1, 5]: 26.2 h; half-life [1, 6]: 49.2 h; half-life [1, 7]: 47.8 h; half-life [1, 8]: 26.2 to 67.4 h
3 | COc1cc(Cc2cnc(N)nc2N)cc(OC)c1N [A2, N-didesmethyl-ADP] | 780 ± 160 | 60 ± 10 |  |  | 440 ± 60 | 240 ± 40 |  |  |  |  | 70 ± 10 | 50 ± 10 | 0.7 | 1.1 | 0.3 | 6.0 | 2.6 | 6.5 | 12.6 | 4.8 | 
